The text below walks through data of patent US9682070B2, “Method and compositions for treatment or prevention of inflammatory conditions” (University of Rochester, priority 2007, dated 2017).

The subject of series [1] is NF-κB-dependent promoter activity. Put plainly: NF-κB-Luc dual luciferase reporter assay in rat aortic VSMCs. For orientation: Reporter assays use an easily measured gene product as a stand-in for the process of interest.
For series [2], the system named is pro-inflammatory mediators at mRNA levels. The series is described as follows: Q-PCR of TNFα-induced pro-inflammatory mediators in rat aortic VSMCs. The series is classed as cell-based. Conditions: TNFα 10 ng/ml 6 hours, vinpocetine 50 μM. The procedure:
(§1) Expression of TNFα, IL-1β, IL-8, MCP-1 and VCAM-1, ICAM-1, MIP-1 at mRNA levels were measured by Real-time quantitative RT-PCR (Q-PCR).
(§2) Total RNA was isolated with TRIzol reagent (Invitrogen) by following the manufacturer's instructions. For the reverse transcription reaction, TaqMan reverse transcription reagents (Applied Biosystems) were used. In brief, the reverse transcription reaction was performed for 60 min at 37° C., followed by 60 min at 42° C. by using oligo (dT) and random hexamers. PCR amplifications were performed by using SYBR Green Universal Master Mix. In brief, reactions were performed in duplicate containing 2× Universal Master Mix, 1 μl of template cDNA and 100 nM primers in a final volume of 12.5 μl, and they were analyzed in a 96-well optical reaction plate (Applied Biosystems). The relative quantities of mRNAs were obtained by using the comparative Ct method and were normalized with predeveloped Taqman assay reagent rat or mouse glyceraldehydes-3-phosphate dehydrogenase or human cyclophilin as an endogenous control (Applied Biosystems).

Series [3] shares this test system. The series is described as follows: Q-PCR of TNFα-induced pro-inflammatory mediators in HUVECs. The series is classed as cell-based, human. Conditions: TNFα 10 ng/ml 6 hours, vinpocetine 50 μM. The procedure: as §1, §2
Series [4] shares this test system. The series is described as follows: Q-PCR of TNFα-induced pro-inflammatory mediators in A549 cells. The format is cell-based, human. The following applies: TNFα 10 ng/ml 6 hours, vinpocetine 50 μM. The method, then:
as §1, §2

For series [5] the test system is unchanged. The series is described as follows: Q-PCR of TNFα-induced pro-inflammatory mediators in RAW264.7. The series is classed as cell-based, mouse. Conditions: TNFα 10 ng/ml 6 hours, vinpocetine 50 μM. The procedure: as §1, §2
Series [6] concerns U937 monocytes adhering to HUVECs. Put plainly: Monocyte adhesion assay. The series is classed as cell-based, human. Conditions: 50 μM vinpocetine 30 min, then TNFα 10 ng/ml 6 hours.
Series [7] deals with monocyte chemotaxis to VSMCs. The series is described as follows: Monocyte chemotaxis assay (transwell migration, Boyden chamber). The following applies: various doses; TNFα 10 ng/ml 9 hours; VSMC-conditional medium. The format is cell-based, rat.
Series [8] concerns LPS-induced lung inflammation. The series is described as follows: Mouse model of lung inflammation induced by LPS. The format is in vivo. Conditions: mice.
Series [9] relates to TNFα-induced lung inflammation. Put plainly: Mouse model of lung inflammation induced by TNFα. The format is in vivo. The following applies: mice; TNFα i.t. (500 ng per mouse). The method, then:
Lung tissues were collected and then stored at -80° C. for mRNA expression analysis. For polymorphonuclear neutrophil (PMN) recruitment analysis, broncho-alveolar lavage (BAL) was performed by cannulating the trachea with sterilized PBS, and cells from BAL was stained with Hemacolor (EM Science) after cytocentrifugation (Shandon Cytospin4, Thermo Electronic Co.). Three mice were used for each inoculation group. All animal experiments were approved by the institutional Animal Care and Use Committee at University of Rochester.

Series [10] relates to IκBα phosphorylation and degradation. The series is described as follows: Western blot of TNFα-induced IκBα phosphorylation and degradation in VSMCs. The series is classed as cell-based. The following applies: rat aortic VSMCs; TNFα 10 ng/ml; vinpocetine 50 μM, nifedipine 30 μM, IC86340 15 μM, EGTA 2 mM, BAPTA/AM 30 μM. The method, then:
(§3) Rat aortic VSMCs were treated with TNFα (10 ng/ml) for different time periods (0-30 minutes) as indicated in the presence or absence of vinpocetine ([…]). Western Blotting analysis was carried out to evaluate the levels of phosphorylated IκBα, total IκBα- and β-actin. […] IKK kinase activity was analyzed by an immune complex kinase assay. […] VSMCs were treated with TNFα for 10 min in the presence of various doses of vinpocetine as indicated. FIG. 8D illustrates the relative IKK activity as indicated. Intensities of the GST-IκBα bands in the autoradiogram were measured by densitometric scanning. Results were normalized to the control ([vinpocetine]=0) that is arbitrarily set to 100%. *p<0.05, **p<0.01 vs. vitipocetine at zero. FIGS. 8E-H illustrate the effects of vinpocetine on NF-κB activation induced by expressing constitutive active form of either MEKK1 (CA-MEKK1) (FIG. 8E), IKKα (CA-IKKα) (FIG. 8F), IKKβ (CA-IKKβ) (FIG. 8G), or WT p65 (FIG. 8H) in VSMCs.
(§4) Rat aortic VSMCs were treated with TNFα (10 ng/ml) for 10 minutes in the presence of either 50 μM vinpocetine, 30 μM nifedipine (Ca^2+ channel blocker), 15 μM IC86340 (PDE1 inhibitor), 2 mM EGTA (extracellular Ca^2+ chelator), or 30 μM BAPTA/AM (intracellular Ca^2+ chelator). […] Western Blotting analysis was carried out to evaluate the levels of phosphorylated IκBα total IκBα and β-actin. Data represent at least three independent experiments.
Cells lysates were prepared in the buffer containing 20 mM Tris-HCl (pH8.0), 0.5 M NaCl, 0.25% Triton X-100, 1 mM EDTA, 1 mM EGTA, 10 mM-glycerophosphate, 10 mM NaF, 100 μM Na3VO4, 1 mM benzamidine, 2 μM PMSF, 1 mM DTT and protease inhibitor cocktail (Sigma, MO. USA), by scraping, sonication, and centrifugation at 12,000 g for 15 min. Supernatant were collected and then subjected to SDS-PAGE and Western blot analysis with indicated antibodies.
(In general: A western blot detects proteins with antibodies after separation by electrophoresis.)

Series [11] deals with IKK. The series is described as follows: IKK immune complex kinase assay from TNFα-treated VSMCs. The series is classed as cell-based, rat. Conditions: for TNFα-induced IKK kinase activity: rat aortic VSMCs treated with TNFα 10 min in the presence of compound; for effect on the ability of vinpocetine on IKK kinase activity, IκB phosphorylation, IκB degradation or NF-κB-dependent transcriptional activity: co-treatment with vinpocetine. The method, then: as §3, §4
Cell lysates were prepared as described above. 1 mg of cell lysates were incubated with 1-2 μg of anti-IKKα (Santa Cruz, Calif., USA) for 1-2 h, followed by 50μl of 50% of slurry protein A/G plus-Agarose for another 1 h or overnight at 4° C. Immunoprecipitants were then washed two times with lysis buffer and once with kinase buffer without ATP. In vitro kinase assay were performed in kinase buffer containing 20 mM HEPES (pH 7.7), 2 mM MgCl2, 2 mM MnCl2, 10 μM ATP, 5 μCi of [γ-^32P]ATP (Amersham Biosciences, NJ, USA), 10 mM glycerophosphate, 10 mM NaF, 100 μM Na3VO4, 1 mM benzamidine, 2 μM PMSF, 1 mM DTT and protease inhibitor cocktail (Sigma, MO, USA) at 30° C. for 30-60 min, in the presence of substrate GST-IκBα (AA 1-54) (kindly provided by Dae-Myung Jue, Catholic University of Korea). Proteins were separated by 12% SDS-PAGE and subjected to autoradiography. Phosphorylation of GST-IκBα was quantified in NIH Image 1.60.
Because IKK is known as the major upstream kinase for IκBα phosphorylation and degradation, whether vinpocetine inhibits IκB phosphorylation and degradation via inhibition of IKK was determined. TNFα-induced activation of IKK was confirmed by performing IKK kinase assay in TNFα-stimulated VSMCs. The crude cell lysates from treated VSMCs were first immunoprecipitated with an anti-IKKα antibody and IKK kinase activity was then measured in vitro with IKK immune complexes incubated with the substrate GST-IκBα in the presence of [γ-^32P]-ATP.

Series [12] deals with NF-κB activation. The series is described as follows: NF-κB luciferase activity induced by CA-MEKK1, CA-IKKα, CA-IKKβ or WT p65 in VSMCs. The series is classed as cell-based, rat.
Series [13] has as its system IKK. Put plainly: In vitro IKK kinase assay, compound applied directly to the IKK immune complex. The series is classed as biochemical, rat. Conditions: IKK immune complex in the test tube.
In series [14] the test system is IKK. Put plainly: In vitro IKK kinase assay in the presence of cell lysates from vinpocetine-treated VSMCs. The format is biochemical, rat. The procedure:
Intensities of the GST-IκBα bands in the autoradiogram were measured by densitometric scanning.

Series [15] has as its system cell morphology and viability. The series is described as follows: Cytotoxic effects on cell morphology and viability. The format is cell-based. Conditions: at the tested doses.
The subject of series [16] is NF-κB-dependent promoter activity. Put plainly: IL-1- and LPS-induced NF-κB-dependent promoter activity. The format is cell-based.
The conditions of series [17]: patients, literature; cited from earlier work.

SMILES strings stand for the structures. “Also recorded” adds a separate entry of the source.

`NC1=N[C@H](O)[C@H]2[C@H]3O[C@]4(O)O[C@@H]([C@@H](O)[C@@]2(N1)[C@@H]4O)[C@]3(O)CO` [tetrodotoxin]: the “effect on the effect of vinpocetine on NF-κB-dependent transcription” value in [1] is recorded as “did not alter”.
`CCOC(=O)C1=C[C@]2(CC)CCCN3CCc4c(n1c1ccccc41)[C@@H]32` [vinpocetine, (+)-vinpocetine]: in [2], the “TNFα-induced expression of TNFα, IL-1β, IL-8, MCP-1 and VCAM-1 mRNA” value was “potently inhibited”. Moreover, the “TNFα-induced expression of TNFα, IL-1β, IL-8, MCP-1, VCAM-1 and ICAM-1 mRNA” value in [3] is listed as “inhibit”. Moreover, in [4], the “TNFα-induced expression of TNFα, IL-1β and IL-8 mRNA” value was “inhibit”. In [5], the “TNFα-induced expression of TNFα, IL-1β and MIP-2 mRNA” value is on record as “inhibit”. Also, the “monocyte adhesion to HUVECs” value in series [6] was “markedly inhibited”. In [7], the “monocyte chemotaxis to VSMCs induced by TNFα” value was “inhibited monocyte chemotaxis to VSMCs induced by TNFα in a dose-dependent manner”. Further, the “induction of TNFα, IL-1β and MIP-2 mRNA in the lungs” value in [8] (LPS 2 μg/mouse i.t., vinpocetine 2.5, 5, 10 mg/kg i.p.) is “dose-dependently inhibited; also recorded: significantly inhibited”. In series [8] (LPS i.t., vinpocetine 10 mg/kg i.p.), the “PMN infiltration in BAL fluids” value is “significantly inhibited”. Besides, in series [9], the “induction of inflammatory mediators and PMN infiltration in the lungs” value is on record as “also inhibited”. Further, the “TNFα-induced IκBα phosphorylation and degradation” value in [10] is given as “markedly inhibited”. For the same molecule, in series [11], the “TNFα-induced IKK kinase activity” value was “inhibited TNFα-induced IKK activity in a dose-dependent manner”. In addition, in [12] (constitutively active IKKα), the “NF-κB activation induced by CA-IKKα” value is given as “inhibited”. Also, in series [12] (constitutively active IKKβ), the “NF-κB activation induced by CA-IKKβ” value is recorded as “inhibited”. Besides, the “CA-MEKK1-induced NF-κB activation” value in series [12] (constitutively active MEKK1) is reported as “significantly inhibited”. Moreover, the “IKK activity, compound directly applied to IKK” value in [13] is recorded as “No significant inhibitory effect; also recorded: did not inhibit IKK activity”. In series [14] (cell lysates), the “inhibition of IKK activity by cell lysates from vinpocetine-treated cells” value is listed as 50% and the “vinpocetine treatment concentration of lysate required for a significant effect on IKK inhibition ex vivo” value came to 100 µM. In [14] (lysates of VSMCs preincubated with vinpocetine), the “IKK activity in the presence of cell lysates from vinpocetine-treated cells” value is recorded as “inhibited IKK activity”. For the same molecule, the “cytotoxic effects on cell morphology and viability” value in series [15] is on record as “no significant cytotoxic effects”. For the same molecule, in series [16], the “IL-1- and LPS-induced NF-κB-dependent promoter activity” value is “inhibited”. In addition, in series [17], the “side effects, toxicity or contraindications at the therapeutic doses” value is given as “no reports of significant side effects, toxicity or contraindications”. Also, the “TNFα-induced NF-κB-dependent promoter activity” value in [1] (rat aortic VSMCs, TNFα 10 ng/ml 6 hours, various doses) is “potently inhibited”.
On to `O=C(O)CN(CCOCCOCCN(CC(=O)O)CC(=O)O)CC(=O)O` [EGTA], for which, in series [10], the “TNFα-induced IκBα phosphorylation and degradation” value is “none of them exhibited any significant inhibitory effects”. In [11], the “effect on the ability of vinpocetine on IKK kinase activity, IκB phosphorylation, IκB degradation or NF-κB-dependent transcriptional activity” value is “did not significantly affect” and the “TNFα-induced IKK kinase activity” value was “none of them exhibited any significant inhibitory effects”.
As to `CC(=O)OCOC(=O)CN(CC(=O)OCOC(C)=O)c1ccccc1OCCOc1ccccc1N(CC(=O)OCOC(C)=O)CC(=O)OCOC(C)=O` [BAPTA/AM], the “TNFα-induced IκBα phosphorylation and degradation” value in series [10] was “none of them exhibited any significant inhibitory effects”. Also, in series [11], the “effect on the ability of vinpocetine on IKK kinase activity, IκB phosphorylation, IκB degradation or NF-κB-dependent transcriptional activity” value is on record as “did not significantly affect” and the “TNFα-induced IKK kinase activity” value was “none of them exhibited any significant inhibitory effects”.
